Each molecule was assayed on Dirofilaria immitis (assay: Influence evaluation test on the growth of Dirofilaria immitis). Conditions: 168 h, read-out: development inhibition rate from the L3 stage larva to the L4-stage larva.
Assay type: cell-based

SMILES | inhibition at 10 µM [%]
C#CCC1C(=O)C(C(=O)Nc2ccc(F)cc2)=C(O)CC1c1ccc(C(F)(F)F)cc1 (stereo not drawn) [1-7, N-(4-fluorophenyl)-5-hydroxy-3-oxo-2-(prop-2-yn-1-yl)-4′-(trifluoromethyl)-1,2,3,6-tetrahydro-[1,1′-biphenyl]-4-carboxamide] | ≥ 50

The molecules below were run on Plutella xylostella (assay: Insecticidal test against Plutella xylostella). Conditions: 500 ppm drug solution, Chinese cabbage seedlings with eggs immersed about 30 sec, six days after immersion, 25° C.
Text: Six days after the immersion in the drug solution, the number of surviving insects was examined. […] In triplicate using 10 per plot.

SMILES | corrected mortality, rating of assessment
CC1C(=O)C(C(=O)Nc2ccc(F)cc2)=C(O)CC1(C)c1ccc(C(F)(F)F)cc1 (stereo not drawn) [1-3] | D or higher
C#CCC1C(=O)C(C(=O)Nc2ccc(F)cc2)=C(O)CC1c1ccc(C(F)(F)F)cc1 (stereo not drawn) [1-7, N-(4-fluorophenyl)-5-hydroxy-3-oxo-2-(prop-2-yn-1-yl)-4′-(trifluoromethyl)-1,2,3,6-tetrahydro-[1,1′-biphenyl]-4-carboxamide] | D or higher
C#CCC1C(=O)C(C(=S)Nc2ccc(F)cc2)=C(O)CC1c1ccc(C(F)(F)F)cc1 (stereo not drawn) [1-18] | D or higher
CC1(C)C(=O)C(C(=S)Nc2ccc(F)cc2)=C(O)CC1c1ccc(C(F)(F)F)cc1 (stereo not drawn) [1-20] | D or higher
CC1(C)C(=O)C(C(=S)Nc2ccc(OC(F)(F)F)cc2)=C(O)CC1c1ccc(C(F)(F)F)cc1 (stereo not drawn) [1-22] | D or higher
O=C(Nc1ccc(F)cc1)C1=C(O)CC(c2ccc(C(F)(F)F)cc2)C2(CCCC2)C1=O (stereo not drawn) [1-28] | D or higher
O=C(Nc1ccc(Oc2ccccc2)cc1)C1=C(O)CC(c2ccc(C(F)(F)F)cc2)C2(CCCCC2)C1=O (stereo not drawn) [1-38] | D or higher
O=C(Nc1ccc(F)cc1)C1=C(O)CC(c2ccc(C(F)(F)F)cc2)C2(CCOCC2)C1=O (stereo not drawn) [1-45] | D or higher
O=C1C(C(=S)Nc2ccc(F)cc2)=C(O)CC(c2ccc(C(F)(F)F)cc2)C12CCCC2 (stereo not drawn) [1-48] | D or higher
O=C(Nc1ccc([N+](=O)[O-])cc1)C1=C(O)CC(c2ccc(C(F)(F)F)cc2)C2(CCCCC2)C1=O (stereo not drawn) [1-118] | D or higher
O=C(Nc1ccccc1-c1ccccc1)C1=C(O)CC(c2ccc(C(F)(F)F)cc2)C2(CCCCC2)C1=O (stereo not drawn) [1-119] | D or higher
O=C(Nc1ccc(SC(F)(F)F)cc1)C1=C(O)CC(c2ccc(C(F)(F)F)cc2)C2(CCCCC2)C1=O (stereo not drawn) [1-120] | D or higher
O=C(Nc1ccc(OC(F)(F)F)cc1)C1=C(O)CC(c2ccc(C(F)(F)F)cc2)C2(CCCCC2)C1=O (stereo not drawn) [1-122] | D or higher
Cl.O=C(Nc1ccc(F)cc1)C1=C(O)CC(c2ccc(C(F)(F)F)cc2)C2(CCNCC2)C1=O (stereo not drawn) [1-136] | D or higher
CC1(C)C(=O)C(C(=O)Nc2ccc(F)cn2)=C(O)CC1c1ccc(Br)cn1 (stereo not drawn) [1-142] | D or higher
CC1(C)C(=O)C(C(=O)Nc2ccc(F)nc2)=C(O)CC1c1ccc(Br)cn1 (stereo not drawn) [1-143] | D or higher
O=C1CC2c3cc(C(F)(F)F)ccc3CC2C(O)=C1C(=O)Nc1ccc(F)cc1 (stereo not drawn) [2-1] | D or higher
O=C1CC2c3ccc(C(F)(F)F)cc3CCC2C(O)=C1C(=O)Nc1ccc(F)cc1 (stereo not drawn) [2-2] | D or higher
CC1C(=O)C(C(=O)Nc2ccc(F)cc2)=C(O)C2CCc3cc(C(F)(F)F)ccc3C12 (stereo not drawn) [2-4] | D or higher
CC1C(=O)C(C(=S)Nc2ccc(F)cc2)=C(O)C2CCc3cc(C(F)(F)F)ccc3C12 (stereo not drawn) [2-9] | D or higher

Each molecule was assayed on Laodelphax striatellus (assay: Insecticidal test against Laodelphax striatellus). Conditions: 500 ppm drug solution, rice seedlings immersed 30 seconds, three-instar insects, eight days after inoculation.

SMILES | corrected mortality, rating of assessment
O=C(Nc1ccc(F)cc1)C1=C(O)CC(c2ccc(C(F)(F)F)cc2)C2(CCCC2)C1=O (stereo not drawn) [1-28] | D or higher

Each molecule was assayed on Frankliniella occidentalis (assay: Insecticidal test against Frankliniella occidentalis). Conditions: 500 ppm drug solution sprayed on hatched larvae on Phaseolus vulgaris leaf pieces, four days after treatment.
Text: Female adults of Frankliniella occidentalis were inoculated onto Phaseolus vulgaris leaf pieces, and after allowing them to lay eggs for one day, the female adults were removed. […] Four days after the treatment, the number of surviving larvae of this species was examined. […] In duplicate.

SMILES | corrected mortality, rating of assessment
CC1C(=O)C(C(=O)Nc2ccc(C(F)(F)F)cc2)=C(O)CC1c1ccc(C(F)(F)F)cc1 (stereo not drawn) [1-2] | D or higher
CC1(C)C(=O)C(C(=O)Nc2ccc(F)c(F)c2)=C(O)CC1c1ccc(C(F)(F)F)cc1 (stereo not drawn) [1-10] | D or higher

From US20250072422A1, “ARYLCYCLOHEXANEDIONE DERIVATIVE OR SALT THEREOF, PEST CONTROL AGENT CONTAINING SAID COMPOUND, AND METHOD FOR USING SAME” (ADEKA Corporation, priority 2021, published 2025)
